Results as given in patent US10105357B2, “Indication of antibiotic drugs for preparation of cancer inhibition pharmaceutical composition” (LAUNX BIOMEDICAL CO., LTD., priority 2014, dated 2018).
Read-outs that look alike come from different tables or passages of the source.

Key:
[1] = system: cancer cell lines; assay: Cell viability analysis (WST-1) on cancer cell lines; format: cell-based, human; conditions: drug 10 μM, 72 hours, WST-1; Table 3
[2] = system: HI650 (Lung Adenocarcinoma); assay: Cell viability analysis, lung cancer HI650; format: cell-based, human; conditions: for viability at 10 µM: Homo sapiens, NCI-H1650, 72 h
[3] = system: A549 (Lung Adenocarcinoma); assay: Cell viability analysis, lung cancer A549; format: cell-based, human; conditions: for viability at 10 µM: Homo sapiens, A549, 72 h
[4] = system: AGS (Gastric Adenocarcinoma); assay: Cell viability analysis, gastric cancer AGS; format: cell-based, human; conditions: for viability at 10 µM: Homo sapiens, 72 h
[5] = system: MKN-45 (Gastric Adenocarcinoma); assay: Cell viability analysis, gastric cancer MKN-45; format: cell-based, human; conditions: for viability at 10 µM: Homo sapiens, MKN-45, 72 h
[6] = system: HepG2 (Hepatocellular Carcinoma); assay: Cell viability analysis, hepatic cancer HepG2; format: cell-based, human; conditions: for viability at 10 µM: Homo sapiens, HepG2, 72 h
[7] = system: Hep3B (hepatocellular carcinoma); assay: Cell viability analysis, hepatic cancer Hep3B; format: cell-based, human
[8] = system: LoVo (Colorectal Adenocarcinoma); assay: Cell viability analysis, colon cancer LoVo; format: cell-based, human; conditions: for viability at 10 µM: Homo sapiens, LoVo, 72 h
[9] = system: A375 (Amelanotic Melanoma); assay: Cell viability analysis, skin cancer A375; format: cell-based, human; conditions: for viability at 10 µM: Homo sapiens, A-375, 72 h
[10] = system: BCC (basal cell carcinoma); assay: Cell viability analysis, skin cancer BCC; format: cell-based, human
[11] = system: HeLa (Cervix Adenocarcinoma); assay: Cell viability analysis, cervical cancer HeLa; format: cell-based, human; conditions: for viability at 10 µM: Homo sapiens, HeLa, 72 h
[12] = system: C-33A (Cervical carcinoma); assay: Cell viability analysis, cervical cancer C-33A; format: cell-based, human
[13] = system: PC3 (p53−) (Prostate Adenocarcinoma); assay: Cell viability analysis, prostate cancer PC3; format: cell-based, human; conditions: for viability at 10 µM: Homo sapiens, 72 h
[14] = system: TSGH-8301 (Urinary Bladder Carcinoma); assay: Cell viability analysis, bladder cancer TSGH-8301; format: cell-based, human; conditions: for viability at 10 µM: Homo sapiens, 72 h
[15] = system: T24; assay: Cell viability analysis, bladder cancer T24; format: cell-based, human
[16] = system: MCF7 (Mammary Gland, Adenocarcinoma); assay: Cell viability analysis, breast cancer MCF7; format: cell-based, human; conditions: for viability at 10 µM: Homo sapiens, MCF7, 72 h
[17] = system: MDA-MB-231 (Mammary Gland, Adenocarcinoma); assay: Cell viability analysis, breast cancer MDA-MB-231; format: cell-based, human
[18] = system: BxPC-3; assay: Cell viability analysis, pancreatic cancer BxPC-3; format: cell-based, human
[19] = system: AsPC-1; assay: Cell viability analysis, pancreatic cancer AsPC-1; format: cell-based, human
[20] = system: NIH: OVCAR-3; assay: Cell viability analysis, ovarian cancer NIH: OVCAR-3; format: cell-based, human
[21] = system: TOV-21G; assay: Cell viability analysis, ovarian cancer TOV-21G; format: cell-based, human
[22] = system: SAS (Tongue squamous cell carcinoma); assay: Cell viability analysis, tongue cancer SAS; format: cell-based, human
[23] = system: U-2OS; assay: Cell viability analysis, osteosarcoma U-2OS; format: cell-based, human
[24] = system: 786-O (Renal adenocarcinoma); assay: Cell viability analysis, renal cancer 786-O; format: cell-based, human
[25] = system: HCT116 (p53+) (Colorectal Carcinoma)

Q: What does the source list for `CC[C@H]1OC(=O)[C@H](C)[C@@H](O[C@H]2C[C@@](C)(OC)[C@@H](O)[C@H](C)O2)[C@H](C)[C@@H](O[C@@H]2O[C@H](C)C[C@H](N(C)C)[C@H]2O)[C@](C)(O)C[C@@H](C)CN(C)[C@H](C)[C@@H](O)[C@]1(C)O` [Azithromycin Dihydrate]?
A: inhibition effect on different cancer cell lines [1]: significant inhibition effect; viability at 10 µM ([2]; read-out: The results of antibiotic drug inhibiting cancer cell lines (cell viability analysis), H1650, H1650, repeated experiment): 98.6%; viability at 10 µM ([2]; read-out: cell viability (survival rate), H1650, drug 10 μM, 72 hours, WST-1, OD450 nm): 61.3%; viability at 10 µM ([3]; read-out: The results of antibiotic drug inhibiting cancer cell lines (cell viability analysis), A549, A549, repeated experiment): 66.3%; viability at 10 µM ([3]; read-out: cell viability (survival rate), A549, drug 10 μM, 72 hours, WST-1, OD450 nm): 41.4%; viability at 10 µM ([4]; read-out: The results of antibiotic drug inhibiting cancer cell lines (cell viability analysis), AGS, repeated experiment): 77.2%; viability at 10 µM ([4]; read-out: cell viability (survival rate), AGS, drug 10 μM, 72 hours, WST-1, OD450 nm): 72.7%; viability at 10 µM ([5]; read-out: The results of antibiotic drug inhibiting cancer cell lines (cell viability analysis), MKN-45, MKN-45, repeated experiment): 95.8%; viability at 10 µM ([5]; read-out: cell viability (survival rate), MKN-45, drug 10 μM, 72 hours, WST-1, OD450 nm): 51.2%; viability at 10 µM ([6]; read-out: The results of antibiotic drug inhibiting cancer cell lines (cell viability analysis), HepG2, HepG2, repeated experiment): 91.4%; viability at 10 µM ([6]; read-out: cell viability (survival rate), HepG2, drug 10 μM, 72 hours, WST-1, OD450 nm): 81.1%; viability at 10 µM ([7]; Homo sapiens, Hep3B, 72 h, read-out: The results of antibiotic drug inhibiting cancer cell lines (cell viability analysis), Hep3B): 109%; viability at 10 µM ([8]; read-out: The results of antibiotic drug inhibiting cancer cell lines (cell viability analysis), LoVo, repeated experiment): 79.2%; viability at 10 µM ([8]; read-out: cell viability (survival rate), LoVo, drug 10 μM, 72 hours, WST-1, OD450 nm): 65.3%; viability at 10 µM ([9]; read-out: The results of antibiotic drug inhibiting cancer cell lines (cell viability analysis), A375, A375, repeated experiment): 97.4%; viability at 10 µM ([9]; read-out: cell viability (survival rate), A375, drug 10 μM, 72 hours, WST-1, OD450 nm): 50.8%; viability at 10 µM ([10]; Homo sapiens, 72 h, read-out: The results of antibiotic drug inhibiting cancer cell lines (cell viability analysis), BCC): 70.6%; viability at 10 µM ([11]; read-out: The results of antibiotic drug inhibiting cancer cell lines (cell viability analysis), HeLa, repeated experiment): 105%; viability at 10 µM ([11]; read-out: cell viability (survival rate), HeLa, drug 10 μM, 72 hours, WST-1, OD450 nm): 55.6%; viability at 10 µM ([12]; Homo sapiens, C-33-A, 72 h, read-out: The results of antibiotic drug inhibiting cancer cell lines (cell viability analysis), C-33A): 92.6%; viability at 10 µM ([13]; read-out: The results of antibiotic drug inhibiting cancer cell lines (cell viability analysis), PC-3, PC-3, repeated experiment): 97.2%; viability at 10 µM ([13]; read-out: cell viability (survival rate), PC3, drug 10 μM, 72 hours, WST-1, OD450 nm): 43%; viability at 10 µM ([14]; read-out: The results of antibiotic drug inhibiting cancer cell lines (cell viability analysis), TSGH-8301, TSGH-8301, repeated experiment): 119%; viability at 10 µM ([14]; read-out: cell viability (survival rate), TSGH, drug 10 μM, 72 hours, WST-1, OD450 nm): 39.4%; viability at 10 µM ([15]; Homo sapiens, T-24, 72 h, read-out: The results of antibiotic drug inhibiting cancer cell lines (cell viability analysis), T24): 112%; viability at 10 µM ([16]; read-out: The results of antibiotic drug inhibiting cancer cell lines (cell viability analysis), MCF-7, MCF-7, repeated experiment): 62.3%; viability at 10 µM ([16]; read-out: cell viability (survival rate), MCF7, drug 10 μM, 72 hours, WST-1, OD450 nm): 36.4%; viability at 10 µM ([17]; Homo sapiens, MDA-MB-231, 72 h, read-out: The results of antibiotic drug inhibiting cancer cell lines (cell viability analysis), MDA-MB231): 97.8%; viability at 10 µM ([18]; Homo sapiens, BXPC-3, 72 h, read-out: The results of antibiotic drug inhibiting cancer cell lines (cell viability analysis), BxPC-3): 71.3%; viability at 10 µM ([19]; Homo sapiens, ASPC1, 72 h, read-out: The results of antibiotic drug inhibiting cancer cell lines (cell viability analysis), AsPC-1): 75.3%; viability at 10 µM ([20]; Homo sapiens, OVCAR-3, 72 h, read-out: The results of antibiotic drug inhibiting cancer cell lines (cell viability analysis), NIH-OVCAR-3): 94%; viability at 10 µM ([21]; Homo sapiens, TOV21G, 72 h, read-out: The results of antibiotic drug inhibiting cancer cell lines (cell viability analysis), TOV-21G): 89.6%; viability at 10 µM ([22]; Homo sapiens, 72 h, read-out: The results of antibiotic drug inhibiting cancer cell lines (cell viability analysis), SAS): 50%; viability at 10 µM ([23]; Homo sapiens, U2OS, 72 h, read-out: The results of antibiotic drug inhibiting cancer cell lines (cell viability analysis), U2OS): 70.3%; viability at 10 µM ([24]; Homo sapiens, 786-0, 72 h, read-out: The results of antibiotic drug inhibiting cancer cell lines (cell viability analysis), 786-O): 91%; viability [25]: 80.7%

Q: With `Cc1cc(C2CCCCC2)n(O)c(=O)c1.NCCO` [Ciclopirox ethanolamine] as the compound, how does the “inhibition effect on different cancer cell lines” value [1] read?
A: Its value is “significant inhibition effect”.

Q: And the “The results of antibiotic drug inhibiting cancer cell lines (cell viability analysis), H1650” value [2]?
A: The value was 53.76.

Q: What about the “The results of antibiotic drug inhibiting cancer cell lines (cell viability analysis), A549” value [3] of the same compound?
A: Its value is 23.67.

Q: What about the “The results of antibiotic drug inhibiting cancer cell lines (cell viability analysis), AGS” value [4] of the same compound?
A: The value was 36.59.

Q: And the “The results of antibiotic drug inhibiting cancer cell lines (cell viability analysis), MKN-45” value [5]?
A: Its value is 72.97.

Q: What about the “The results of antibiotic drug inhibiting cancer cell lines (cell viability analysis), HepG2” value [6] of the same compound?
A: The value was 102.4.

Q: And the “The results of antibiotic drug inhibiting cancer cell lines (cell viability analysis), Hep3B” value [7]?
A: The value was 48.66.

Q: And the “The results of antibiotic drug inhibiting cancer cell lines (cell viability analysis), LoVo” value [8]?
A: Its value is 65.53.

Q: And the “The results of antibiotic drug inhibiting cancer cell lines (cell viability analysis), A375” value [9]?
A: The value was 21.76.

Q: What about the “The results of antibiotic drug inhibiting cancer cell lines (cell viability analysis), BCC” value [10] of the same compound?
A: Its value is 29.08.

Q: What about the “The results of antibiotic drug inhibiting cancer cell lines (cell viability analysis), HeLa” value [11] of the same compound?
A: The value was 41.02.

Q: And the “The results of antibiotic drug inhibiting cancer cell lines (cell viability analysis), C-33A” value [12]?
A: Its value is 42.12.

Q: What about the “The results of antibiotic drug inhibiting cancer cell lines (cell viability analysis), PC-3” value [13] of the same compound?
A: Its value is 54.81.

Q: And the “The results of antibiotic drug inhibiting cancer cell lines (cell viability analysis), TSGH-8301” value [14]?
A: The value was 43.63.

Q: What about the “The results of antibiotic drug inhibiting cancer cell lines (cell viability analysis), T24” value [15] of the same compound?
A: Its value is 41.2.

Q: And the “The results of antibiotic drug inhibiting cancer cell lines (cell viability analysis), MCF-7” value [16]?
A: Its value is 53.67.

Q: What about the “The results of antibiotic drug inhibiting cancer cell lines (cell viability analysis), MDA-MB231” value [17] of the same compound?
A: The value was 48.29.

Q: And the “The results of antibiotic drug inhibiting cancer cell lines (cell viability analysis), BxPC-3” value [18]?
A: Its value is 47.7.

Q: What about the “The results of antibiotic drug inhibiting cancer cell lines (cell viability analysis), AsPC-1” value [19] of the same compound?
A: The value was 46.57.

Q: What about the “The results of antibiotic drug inhibiting cancer cell lines (cell viability analysis), NIH-OVCAR-3” value [20] of the same compound?
A: Its value is 66.99.

Q: What about the “The results of antibiotic drug inhibiting cancer cell lines (cell viability analysis), TOV-21G” value [21] of the same compound?
A: The value was 28.95.

Q: And the “The results of antibiotic drug inhibiting cancer cell lines (cell viability analysis), SAS” value [22]?
A: Its value is 31.98.

Q: And the “The results of antibiotic drug inhibiting cancer cell lines (cell viability analysis), U2OS” value [23]?
A: Its value is 51.75.

Q: What about the “The results of antibiotic drug inhibiting cancer cell lines (cell viability analysis), 786-O” value [24] of the same compound?
A: The value was 18.27.

Q: What about the viability [25] of the same compound?
A: Its viability is 29.5%.
